Assay results taken from patent US12502385B2, “Analogs of deutetrabenazine, their preparation and use” (Auspex Pharmaceuticals, Inc., priority 2017, dated 2025).
Where “and” joins values, the source holds several entries; their conditions need not be identical. Equal values may be shown once.

Experiments:
[1] = 90-day GLP general rat toxicology study
Procedure: A 90-day GLP general rat toxicology study was conducted with Compound 1.

mice = settings: mouse, in vivo
Procedure: A 3-day GLP mouse micronucleus study was conducted with Compound 1. That study included a GLP Bacterial Reverse Mutation Assay of deutetrabenazine with Compound 1. That study also included an in vitro Chromosome Aberration Test in Cultured Human Peripheral Blood Lymphocytes. In the study, the highest level of 80 mg/kg/day of deutetrabenazine was not genotoxic in males and females. That dose level was predicted to provide 2.77 mg Compound 1/kg/day in mice, which approximates to a human equivalent dose of 0.23 mg/kg.

Row | SMILES | NOAEL at 90 day ([1]; in vivo) | Compound 1 dose provided at the non-genotoxic deutetrabenazine level (mice; both, 3 day) | human equivalent dose of Compound 1 at the non-genotoxic level (mice; both, 3 day) | NOAEL at 90 day ([1]; rat) | genotoxicity (mice; 80 mg/kg/day)
1 | [2H]C([2H])([2H])Oc1cc2c(cc1OC([2H])([2H])[2H])[C@@H]1CC(=O)[C@H](CC(C)C)CN1CC2 (racemic) [Compound 1, (RS, SR)-1,3,4,6,7,11b-hexahydro-9,10-di(methoxy-d3)-3-(2-methylpropyl)-2H-benzo[a]quinolizin-2-one] | 0.346 mg/kg/day and ~0.056 mg/kg | 2.77 mg/kg/day | ~0.23 mg/kg | – | –
2 | [2H]C([2H])([2H])Oc1cc2c(cc1OC([2H])([2H])[2H])C1CC(=O)C(CC(C)C)CN1CC2 (centres unmarked) [deutetrabenazine, d6-Tetrabenazine] | – | – | – | 10 mg/kg/day | not genotoxic
